What was measured:
anaesthetised dog [1] = experiment: haemodynamics in the anaesthetised dog; format: in vivo; conditions: for effect on mean blood pressure / effect on total vascular resistance (TVR; TPR) / effect on cardiac output and heart rate: s.c., hydrochloride; for effect on mean blood pressure / effect on total vascular resistance (TVR; TPR): doses up to 3000 μg/kg
Excerpt: Male beagles were anaesthetised with a mixture of chloralose and urethane, following pre-medication with piritramide. They were instrumented to measure arterial blood pressure, cardiac output, E.C.G., pudendal artery blood flow (PAF) and intra-cavernosal pressure (ICP). Other parameters such as heart rate and vascular resistance were derived from the primary signals. Following a period of equilibration, a series of control readings were taken and the effects of pelvic nerve stimulation at 4 and 8 Hz, on ICP and PAF were measured. Compounds were administered subcutaneously in the dorsal neck region via an implanted catheter, in the dose range of 0.3-3000 μg(base)/kg. Following each dose, parameters were measured at fixed intervals for 30 min.
Results were analysed as percent change from the final control values for each dog and mean values for three dogs were used.

conscious rats = experiment: conscious rat models of copulatory behaviour; conditions: in vivo
Method: All studies of sexual behaviour must be performed on adult rats (˜12 weeks of age/200 g weight). Sexual behaviour tests are performed under red light during the dark phase of the light/dark cycle starting at 2 h after lights off and videotaped for further analysis (observer presence can unfavourably alter sexual behaviour).
Males (N=8-10) are placed in a clear aquarium (or home cage) for at least 15 min acclimation period. An estrous female is introduced into the mating arena. The following information is recorded during the 45 min test: latency to begin mounting behaviour, latency to first intromission, latency to first ejaculation (calculated from first intromission), number of intromissions to ejaculation, number of mounts until ejaculation, and the number of ejaculations during the test period. Males are observed during a single 45 min test with an estrous WT female.
The rats are presented with a receptive female at […], i.e. every third day (having 2 clear days between presentations), until completing at least 6 days of baseline determination. By then, vigorous behaviour should be expected. Rats that display sluggish copulatory behaviour are used as a model of HSDD.
For all the sexual behaviour tests, the males are placed in an observation arena (50-60 cm diameter for rats). 3 to 4 minutes after placing the male in the arena, a receptive female (ovariectomised, bearing a 7 mm silastic implant of oestradiol benzoate gives the best results without complications) is introduced to the arena and the following parameters noted:
Mount Latency: time (in seconds) taken between introduction of female and first mount. A maximum time of 15 minutes (900 seconds) is allowed, and the test terminated if no mounts are recorded within that time. Mount latency is related to sexual drive/desire.
Intromission Latency: time (in seconds) taken between introduction of female and first intromission. A maximum time of 15 minutes (900 seconds) is allowed, and the test terminated if no intromissions are recorded within that time. Intromission latency is related to sexual drive/desire.
Copulatory effectsiveness:—no of intromissions/(no of mounts+intromissions). This acts as a measure of erectile function.
The test, in the rat, is carried out in a circular arena of 90 cm diameter surrounded by a 30 cm high wall (these dimensions would need to be adapted for mice). Two small cages with wire-mesh front (15×15 cm) are fixed into the wall such that the front of the cage is “flush” with the wall and the 2 cages are opposite each other. […] The difference in the percentage of time spent investigating male minus female is calculated, out of the total time spent investigating stimuli animals. […] Female rats would then be used intact and tested in late proestrous, as determined by vaginal smears. […]

anaesthetised dog [2] = experiment: emesis in the chloralose anaesthetised dog
Method: (§1) Male beagles, 11-17 kg were used. Following an overnight fast, animals were anaesthetised with chloralose (80 mg kg^−1 i.v.), having first been injected with an anaesthetic dose of the short acting barbiturate, thiopentone (15 mg kg^−1 i.v.). Following tracheal intubation, which ensured a patent airway even during the expulsion phase of the emetic response, the left femoral vein and artery were cannulated for further administration of anaesthetic and for recording haemodynamic parameters, respectively. […] During the stabilisation period, respiratory rate was monitored to ensure that central respiratory centres were not deeply depressed, since the CNS efferent component of the emetic reflex is essentially conveyed via respiratory motor neurones. […] Animals were observed closely for 30 min post-dose and motor (e.g. swallowing, eye blinking, limb movements, changes in respiratory rate and depth, retching and vomiting) and haemodynamic changes noted and recorded. […] At the end of an experiment animals were sacrificed with an overdose of pentobarbitone.
(§2) Observations made on individual animals were used to determine the percentage of animals that retched when injected with a particular dose level of test compound. Percentage of animals retching was then used to construct a dose response curve and an ED50 value determined from the appropriate curve.

[3] = emesis in the chloralose anaesthetised dog; conditions: male, beagle, dog, in vivo, 3000 μg kg^−1
Method: as §1, §2

[4] = at 3000 μg/kg, haemodynamic study

CCCN1CCO[C@H](c2cccc(O)c2)C1.Cl [Example 8, R-(−)-3-(4-Propylmorpholin-2-yl)phenol hydrochloride]
free plasma concentration of the corresponding samples (anaesthetised dog [1]; [4]): 2700 nM | free plasma concentration relative to the D3 EC50 (anaesthetised dog [1]; [4]): approximately 270 fold | Geometric mean ED30 (fall in TPR) (anaesthetised dog [1]; dog, in vivo): No effect | effect on mean blood pressure (anaesthetised dog [1]): No significant effect | effect on total vascular resistance (TVR; TPR) (anaesthetised dog [1]): No significant effect | effect on mean blood pressure (anaesthetised dog [1]; listed as selective D3 agonist): no significant effects | effect on total vascular resistance (TVR; TPR) (anaesthetised dog [1]; listed as selective D3 agonist): no significant effects | effect on cardiac output and heart rate (anaesthetised dog [1]): no significant effect | effect on cardiac output and heart rate (anaesthetised dog [1]; listed as selective D3 agonist): no significant effects | copulatory behaviour and copulatory effectiveness in male rats (conscious rats): beneficially enhances | mount latency and intromission latency in sluggish males (model of HSDD) (conscious rats): reduces | proceptive and receptive behaviours in female rats (conscious rats): beneficially enhances | sexual desire in oestrogen primed ovarectomised animals (model of HSDD) (conscious rats): restores | free plasma concentration relative to the D3 EC50 (anaesthetised dog [2]; at 3000 μg/kg, emesis study): approximately 270 fold | dose at which emesis was observed (anaesthetised dog [2]; s.c., escalating doses 3-3000 μg kg^−1): > 3 mg/kg | concentration at 15 min [3]: ~1000 nM

Source: patent publication US20060052435A1, “Selective dopamin d3 receptor agonists for the treatment of sexual dysfunction” (priority 2001, published 2006)
